Data set [1] is described as follows: Plasma protein binding by equilibrium dialysis, human. It is filed as in vitro ADME. The settings on record: both sexes, pH 7.4, read-out: Plasma free fraction. As for the experimental part:
(§1) Plasma protein binding was assessed by equilibrium dialysis, utilizing the HT-dialysis cell format with a cellulose semi permeable membrane (molecular weight cut off of 5000 Da). Plasma was warmed to 37° C. and adjusted to pH 7.4 before use. Male Sprague-Dawley rat, male Beagle dog, male CD-1 mouse and mixed sex human plasma was used for the studies. A 5 μM test compound solution was prepared in isotonic phosphate buffer and rat, dog, mouse and human plasma (final DMSO concentration of 0.5%). The plasma-containing solution was introduced to one side of the membrane, and the plasma-free on the other. Incubations were performed for 2-16 hours in duplicate in order to allow the compound to reach equilibrium. Haloperidol was included as the control compound for each species. At the end of the equilibration time the cells were emptied. Following protein precipitation, the samples were centrifuged and analyzed by LC-MS/MS. The samples from the protein containing compartment were quantified using calibration standards prepared in plasma and the protein free compartments were quantified using calibration standards prepared in dialysis buffer.
(In equilibrium dialysis only unbound substance equilibrates across the membrane.)

The nature of data set [2]: Plasma protein binding by equilibrium dialysis, rat. The settings on record: male, Sprague-Dawley, pH 7.4, read-out: Plasma free fraction. It is filed as in vitro ADME. The procedure: as §1
The nature of another data set: Plasma stability, dog. It is filed as in vitro ADME. The conditions noted are these: Beagle, pooled plasma, 37° C., read-out: Half-life in ex vivo blood plasma. The text has this:
Samples were quenched in methanol and analyzed by LC-MS/MS analysis.

Data set [3] in a line: Liver microsome stability, human. The data set is classed as in vitro ADME. The procedure: (§2) The final incubation volume was 50 μL. Control incubations were included for each species where 0.1 M phosphate buffer pH 7.4 was added instead of NADPH (minus NADPH). Two control compounds were included for each species. […] The control (minus NADPH) was incubated for 45 minutes only. The reactions were stopped by transferring 25 μL of incubate to 50 μL methanol at the appropriate time points. The incubation plates were centrifuged at 2,500 rpm for 20 minutes at 4° C. to aid protein precipitation. Experimental half-lives were transformed to the corresponding intrinsic clearance values and subsequently scaled to predicted in vivo clearance values, using the well-stirred model as previously described (Houston, Biochemical Pharmacology 47(9): 1469-1479, 1994; Obach, Drug Metabolism and Disposition 27(11): 1350-1359, 1999), with appropriate species-specific scaling factors (Barter et al., Current Drug Metabolism 8(1): 33-45, 2007).
Background: Liver microsomes are vesicles of endoplasmic reticulum, rich in cytochrome P450 enzymes.

The nature of data set [4]: Hepatocyte stability, dog. The data set is classed as in vitro ADME, Beagle dog. As for the experimental part: Human, Beagle dog, Sprague-Dawley rat, and CD-1 mouse cryopreserved hepatocytes were obtained from XenoTech and stored at −150° C. until use. The hepatocytes were thawed and prepared according to the vendor's instructions, pooled into Krebs Henseleit buffer (KHB, pH 7.4), and kept on ice prior to initiating an experiment. […] The reaction mixture was incubated in a shaking water bath at 37° C. Aliquots of the incubation solutions were sampled at 0, 15, 30, 60, and 120 minutes. The reaction was immediately terminated by the addition of three volumes of ice-cold acetonitrile containing 0.1% formic acid and internal standards. After centrifugation at 1640×g for 10 minutes, the supernatants were transferred into HPLC vials, and the test compound was analyzed by LC-MS/MS. Positive controls, testosterone (20 μM) and 7-hydroxycoumarin (100 μM), were performed in parallel to confirm the enzyme activities of the hepatocytes used.
Experimental half-lives were transformed to the corresponding intrinsic clearance values and subsequently scaled to predicted in vivo clearance values, using the well-stirred model as previously described (Houston, Biochemical Pharmacology 47(9): 1469-1479, 1994; Obach, Drug Metabolism and Disposition 27(11): 1350-1359, 1999), with appropriate species-specific scaling factors (Barter et al., Current Drug Metabolism 8(1): 33-45, 2007).

Data set [5] is described as follows: Liver microsome stability, mouse. The data set is classed as in vitro ADME. As for the experimental part:
as §2

The mark [6] stands for this setting: liver microsomes, pH 7.4, NADPH, 3 μM.

Consider one compound from patent US20160368943A1, “SUBSTITUTED PURINE COMPOUNDS” (EPIZYME, INC., priority 2013, published 2016).

Broadly, the half-life is the time in which the quantity being followed falls by half. As a reminder, the microsomal CLint is the rate of metabolic loss divided by the concentration. A lower microsomal CLint goes with greater metabolic stability. The hepatocyte CLint is the capacity of the preparation to metabolise the compound, expressed as a volume cleared per time.

Some results are limits rather than exact numbers.

For the compound `CC(C)N(C[C@H]1O[C@@H](n2cnc3c(N)ncnc32)[C@H](O)[C@@H]1O)[C@H]1C[C@@H](CCc2nc3cc(C(C)(C)C)ccc3[nH]2)C1` [Compound A, (2R,3R,4S,5R)-2-(6-amino-9H-purin-9-yl)-5-((((1r,3S)-3-(2-(5-(tert-butyl)-1H-benzo[d]imidazol-2-yl)ethyl)cyclobutyl)(isopropyl)amino)methyl)tetrahydrofuran-3,4-diol], the fraction unbound at 5 μM in data set [1] came to 0.125; in data set [2], 0.272. Also, in the data set “Plasma stability, dog”, the half-life at 1 μM is above 2 h. Also, the microsomal CLint at 3 μM in data set [3] (setting [6]) was 88 µL/min/mg; in data set [5] (setting [6]), 150 µL/min/mg. In addition, the entries for the “Scaled Hepatic CL from liver microsomes” value in data set [3] (well-stirred model) and in data set [5] (well-stirred model) were 17 mL/min/kg and 78 mL/min/kg, respectively. In addition, the “Scaled Hepatic CL from hepatocytes” value in data set [4] was 21 mL/min/kg. For the same compound, the intrinsic clearance (hepatocyte CLint) at 3 μM in data set [4] (beagle, cryopreserved hepatocytes in suspension, pH 7.4, 3 μM) amounted to 14.9 µL/min/1e6 cells.
